According to US20050282743A1, “Molecular interactions in cells” (Arbor Vita Corporation, priority 2001, published 2005):
Ends that are not written are not given here. Peptide text beside a SMILES is read from it. * marks the point of attachment. Biotin = O=C1N[C@H]2[C@H](CS[C@H]2CCCCC(=O)*)N1

Assays:
Assay in all cases: G' assay (10 uM PL peptide), results of TABLE 7 and TABLE 12
Type in all cases: binding
[1] = target: T1, PDZ protein (GST-PDZ fusion) (Homo sapiens, UniProt Q02410)
T1 construct: made in house; host or cells: E. coli (DH5alpha, BL21 or JM109)
T1 sequence (Q02410 1-837): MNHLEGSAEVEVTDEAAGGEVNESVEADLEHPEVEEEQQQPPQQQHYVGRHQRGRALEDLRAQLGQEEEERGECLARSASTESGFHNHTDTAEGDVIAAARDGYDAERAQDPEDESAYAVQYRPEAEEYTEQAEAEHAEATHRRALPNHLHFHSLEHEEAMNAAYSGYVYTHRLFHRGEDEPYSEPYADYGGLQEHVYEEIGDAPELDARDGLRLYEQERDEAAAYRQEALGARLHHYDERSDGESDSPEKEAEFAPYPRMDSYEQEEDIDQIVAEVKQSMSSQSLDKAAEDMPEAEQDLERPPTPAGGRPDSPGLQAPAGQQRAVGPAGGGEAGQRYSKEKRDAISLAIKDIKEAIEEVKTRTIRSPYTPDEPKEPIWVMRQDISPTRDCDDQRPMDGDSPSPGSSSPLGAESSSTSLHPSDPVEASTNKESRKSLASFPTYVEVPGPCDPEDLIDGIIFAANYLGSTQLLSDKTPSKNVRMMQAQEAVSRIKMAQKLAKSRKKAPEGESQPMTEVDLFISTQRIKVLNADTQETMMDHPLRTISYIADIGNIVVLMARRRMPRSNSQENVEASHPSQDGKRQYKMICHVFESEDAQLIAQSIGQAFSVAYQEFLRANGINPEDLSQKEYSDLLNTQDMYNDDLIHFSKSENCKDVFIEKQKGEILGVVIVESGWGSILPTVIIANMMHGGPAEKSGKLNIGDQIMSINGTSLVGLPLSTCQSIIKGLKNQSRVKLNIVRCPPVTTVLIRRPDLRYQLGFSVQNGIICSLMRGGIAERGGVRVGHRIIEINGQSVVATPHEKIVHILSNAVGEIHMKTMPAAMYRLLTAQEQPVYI
Procedure, shortened: (§1)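 Same steps as the G-zero format, apart from a peptide concentration of 10 uM in place of 20 uM in step 2. Amino-terminally biotinylated PL peptides bind GST-PDZ fusions, and retained peptide is quantified by 450 nm absorbance.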

[2] = target: T2, PDZ protein (GST-PDZ fusion) (Homo sapiens, UniProt Q12923)
T2 construct: made in house; host or cells: E. coli (DH5alpha, BL21 or JM109)
Procedure, shortened: as §1

[3] = tested on: PDZ protein (GST-PDZ fusion)
Procedure, shortened: as §1

[4] = PDZ HEMBA 1003117, PDZ Domain 1
[5] = PDZ Unnamed Protein, PDZ Domain 2

T2 sequence (Q12923 whole entry, the tested form may be a part): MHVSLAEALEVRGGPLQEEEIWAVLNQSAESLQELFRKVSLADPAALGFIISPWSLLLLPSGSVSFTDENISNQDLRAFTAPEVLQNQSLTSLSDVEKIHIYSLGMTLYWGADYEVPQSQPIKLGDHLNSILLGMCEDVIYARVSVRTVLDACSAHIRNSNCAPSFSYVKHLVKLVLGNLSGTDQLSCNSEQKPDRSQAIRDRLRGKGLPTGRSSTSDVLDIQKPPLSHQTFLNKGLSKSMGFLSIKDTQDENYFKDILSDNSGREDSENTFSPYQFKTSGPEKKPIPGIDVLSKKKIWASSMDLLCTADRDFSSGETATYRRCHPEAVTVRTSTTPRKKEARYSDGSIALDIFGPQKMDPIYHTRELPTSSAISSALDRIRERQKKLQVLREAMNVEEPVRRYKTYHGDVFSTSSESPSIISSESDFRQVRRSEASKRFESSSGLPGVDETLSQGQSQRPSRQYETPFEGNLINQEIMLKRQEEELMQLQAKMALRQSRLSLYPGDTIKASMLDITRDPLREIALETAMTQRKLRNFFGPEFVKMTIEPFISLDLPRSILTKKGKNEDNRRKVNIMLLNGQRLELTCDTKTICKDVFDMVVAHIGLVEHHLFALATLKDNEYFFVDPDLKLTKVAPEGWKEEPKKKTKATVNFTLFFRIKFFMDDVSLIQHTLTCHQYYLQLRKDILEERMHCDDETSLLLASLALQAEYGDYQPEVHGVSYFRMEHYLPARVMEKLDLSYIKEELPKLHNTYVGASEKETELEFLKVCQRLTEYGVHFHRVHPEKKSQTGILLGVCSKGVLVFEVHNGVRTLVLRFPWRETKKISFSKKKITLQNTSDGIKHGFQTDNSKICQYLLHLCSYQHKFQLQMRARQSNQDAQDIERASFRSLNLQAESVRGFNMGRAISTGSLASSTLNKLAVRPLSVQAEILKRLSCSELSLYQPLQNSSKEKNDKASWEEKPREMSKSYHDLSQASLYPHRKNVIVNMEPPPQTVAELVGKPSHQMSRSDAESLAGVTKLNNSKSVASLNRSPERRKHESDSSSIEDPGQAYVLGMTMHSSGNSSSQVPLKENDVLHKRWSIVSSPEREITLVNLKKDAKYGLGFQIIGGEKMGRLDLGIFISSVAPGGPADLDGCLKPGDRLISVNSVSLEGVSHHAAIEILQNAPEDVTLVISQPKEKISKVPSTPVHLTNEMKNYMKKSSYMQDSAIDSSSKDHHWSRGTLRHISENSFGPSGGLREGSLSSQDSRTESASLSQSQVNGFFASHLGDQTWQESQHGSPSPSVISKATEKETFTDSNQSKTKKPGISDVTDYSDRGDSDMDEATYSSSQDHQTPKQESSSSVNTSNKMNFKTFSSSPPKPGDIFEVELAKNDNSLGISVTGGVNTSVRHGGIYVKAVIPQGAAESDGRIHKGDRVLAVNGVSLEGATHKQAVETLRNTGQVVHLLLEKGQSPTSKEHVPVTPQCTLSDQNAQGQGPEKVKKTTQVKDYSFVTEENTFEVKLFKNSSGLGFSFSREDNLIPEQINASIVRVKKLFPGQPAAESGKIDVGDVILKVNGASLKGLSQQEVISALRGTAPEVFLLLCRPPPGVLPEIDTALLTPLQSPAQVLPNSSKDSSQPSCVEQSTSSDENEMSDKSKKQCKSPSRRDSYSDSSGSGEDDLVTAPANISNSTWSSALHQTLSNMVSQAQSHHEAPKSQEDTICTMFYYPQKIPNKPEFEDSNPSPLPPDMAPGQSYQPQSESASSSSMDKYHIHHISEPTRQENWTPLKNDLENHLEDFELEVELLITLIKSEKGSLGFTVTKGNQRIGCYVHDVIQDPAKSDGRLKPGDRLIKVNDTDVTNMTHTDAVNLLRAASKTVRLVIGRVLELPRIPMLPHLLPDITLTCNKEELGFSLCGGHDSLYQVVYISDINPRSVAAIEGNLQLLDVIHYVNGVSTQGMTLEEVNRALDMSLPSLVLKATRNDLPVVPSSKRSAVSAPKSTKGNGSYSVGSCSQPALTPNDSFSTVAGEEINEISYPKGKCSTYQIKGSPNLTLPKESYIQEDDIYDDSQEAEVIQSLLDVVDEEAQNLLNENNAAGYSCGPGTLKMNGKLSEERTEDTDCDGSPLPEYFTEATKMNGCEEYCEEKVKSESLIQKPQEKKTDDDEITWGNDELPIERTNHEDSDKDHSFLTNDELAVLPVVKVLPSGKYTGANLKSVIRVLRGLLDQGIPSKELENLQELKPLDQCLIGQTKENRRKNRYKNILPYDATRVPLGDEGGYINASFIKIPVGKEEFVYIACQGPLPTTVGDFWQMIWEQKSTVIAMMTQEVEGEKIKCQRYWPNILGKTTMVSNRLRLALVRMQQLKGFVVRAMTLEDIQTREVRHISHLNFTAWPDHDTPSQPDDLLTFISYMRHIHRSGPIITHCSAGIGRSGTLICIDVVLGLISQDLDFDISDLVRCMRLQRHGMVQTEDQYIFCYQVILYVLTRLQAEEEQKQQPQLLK

| Compound | Classification ([1]; PDZ Mint 1, PDZ Domain 2) | Classification ([2]; PDZ PTPL-1, PDZ Domain 2) | Classification ([3]; PDZ BAI-1, PDZ Domain 2) | Classification ([3]; PDZ FLJ 00011, PDZ Domain 1) | Classification [3, 4] | Classification ([3]; PDZ SHANK, PDZ Domain 1) | Classification [3, 5] | Classification ([1]; PDZ Mint 1, PDZ Domain 1, 2) | Classification ([2]; PDZ PTPL-1, PDZ Domain 4) | Classification ([3]; PDZ BAI-1, PDZ Domain 3) | Classification ([3]; PDZ BAI-1, PDZ Domain 4) | Classification ([3]; PDZ BAI-1, PDZ Domain 5) | Classification ([3]; PDZ BAI-1, PDZ Domain 6) | Classification ([3]; PDZ Connector Enhancer, PDZ Domain 1) | Classification ([3]; PDZ FLJ 11215, PDZ Domain 1) | Classification ([3]; PDZ Novel PDZ, PDZ Domain 1) | Classification ([1]; PDZ Mint 1, PDZ Domain 1) | Classification ([3]; PDZ FLJ00011 (also printed FLJ 00011), PDZ Domain 1) | Classification ([3]; PDZ LIM Protein, PDZ Domain 1) |
| --- | --- | --- | --- | --- | --- | --- | --- | --- | --- | --- | --- | --- | --- | --- | --- | --- | --- | --- | --- |
| CC(C)C[C@H](NC(=O)[C@H](C)NC(=O)[C@@H](NC(=O)[C@@H](NC(=O)[C@H](Cc1c[nH]cn1)NC(=O)[C@H](CC(C)C)NC(=O)CNC(=O)[C@H](CCC(N)=O)NC(=O)CNC(=O)CNC(=O)[C@H](C)NC(=O)[C@H](C)NC(=O)[C@H](CCCNC(=N)N)NC(=O)[C@H](C)NC(=O)[C@H](CO)NC(=O)[C@H](CC(=O)O)NC(=O)[C@H](CC(=O)O)NC(=O)[C@H](Cc1c[nH]c2ccccc12)NC(=O)[C@H](C)NC(=O)CCCC[C@@H]1SC[C@@H]2NC(=O)N[C@@H]21)C(C)C)[C@@H](C)O)C(=O)O [LPAP] (Biotin-AWDDSARAAGGQGLHVTAL-OH; C-terminus assumed) | 1 (A450 nm 0-1) | 1 (A450 nm 0-1) | 2 (A450 nm 1-2) | 4 (A450 nm 3-4) | 1 (A450 nm 0-1) | 3 (A450 nm 2-3) | 3 (A450 nm 2-3) |  |  |  |  |  |  |  |  |  |  |  |  |
| CC(C)C[C@H](NC(=O)[C@H](CC(C)C)NC(=O)[C@@H](NC(=O)[C@H](CC(=O)O)NC(=O)CCCC[C@@H]1SC[C@@H]2NC(=O)N[C@@H]21)[C@@H](C)O)C(=O)N[C@@H](CC(C)C)C(=O)N[C@H](C(=O)N[C@@H](CCC(=O)O)C(=O)N[C@@H](CC(N)=O)C(=O)N[C@@H](CCC(=O)O)C(=O)NCC(=O)N[C@@H](CC(=O)O)C(=O)N[C@@H](CCCCN)C(=O)N[C@H](C(=O)N[C@@H](CCC(=O)O)C(=O)N[C@@H](CCC(=O)O)C(=O)N[C@@H](CCC(N)=O)C(=O)N[C@H](C(=O)N[C@@H](CO)C(=O)N[C@@H](Cc1ccc(O)cc1)C(=O)N[C@H](C(=O)O)C(C)C)C(C)C)[C@@H](C)O)[C@@H](C)O [5H2B_HUMAN] (Biotin-DTLLLTENEGDKTEEQVSYV-OH; C-terminus assumed) | 1 (A450 nm 0-1) | 5 (A450 nm of 4 more than 2× repeated) |  |  | 1 (A450 nm 0-1) |  |  | 1 (A450 nm 0-1) | 2 (A450 nm 1-2) | 4 (A450 nm 3-4) |  |  |  |  |  |  |  |  |  |
| CSCC[C@H](NC(=O)[C@H](C)NC(=O)[C@H](CCCNC(=N)N)NC(=O)CNC(=O)[C@@H](NC(=O)[C@H](Cc1c[nH]c2ccccc12)NC(=O)[C@H](CCCNC(=N)N)NC(=O)CNC(=O)CCCC[C@@H]1SC[C@@H]2NC(=O)N[C@@H]21)[C@@H](C)O)C(=O)N[C@@H](CO)C(=O)N[C@@H](C)C(=O)N[C@@H](Cc1c[nH]c2ccccc12)C(=O)N[C@@H](CCCCN)C(=O)N1CCC[C@H]1C(=O)N[C@H](C(=O)N[C@@H](CCCNC(=N)N)C(=O)N[C@@H](CCCNC(=N)N)C(=O)N[C@@H](CCC(=O)O)C(=O)N[C@H](C(=O)N[C@@H](CCC(=O)O)C(=O)N[C@H](C(=O)O)C(C)C)[C@@H](C)O)[C@@H](C)O [HPV E6 #35 (modified)] (Biotin-GRWTGRAMSAWKPTRRETEV-OH; C-terminus assumed) | 2 (A450 nm 1-2) | 2 (A450 nm 1-2) | 5 (A450 nm of 4 more than 2× repeated) | 3 (A450 nm 2-3) | 1 (A450 nm 0-1) |  |  | 1 (A450 nm 0-1) | 1 (A450 nm 0-1) | 4 (A450 nm 3-4) | 5 (A450 nm of 4 more than 2× repeated) | 5 (A450 nm of 4 more than 2× repeated) | 3 (A450 nm 2-3) | 1 (A450 nm 0-1) | 4 (A450 nm 3-4) |  |  |  |  |
| VHDAESSDEDGYDWGPATDL (Biotin-VHDAESSDEDGYDWGPATDL) [zona occludens 3 (ZO-3)] | 2 (A450 nm 1-2) | 2 (A450 nm 1-2) |  |  |  | 1 (A450 nm 0-1) |  |  |  |  |  |  | 2 (A450 nm 1-2) |  |  | 1 (A450 nm 0-1) |  |  |  |
| A2AA_HUMAN (modified) (Biotin-HDFRRAFKKILARGDRKRIV; not fully specified) |  | 2 (A450 nm 1-2) |  |  | 1 (A450 nm 0-1) |  | 1 (A450 nm 0-1) |  |  |  |  |  | 3 (A450 nm 2-3) |  |  |  | 1 (A450 nm 0-1) |  |  |
| TQGFPGPATWRRISSLESEV | 1 (A450 nm 0-1) | 5 (A450 nm of 4 more than 2× repeated) | 4 (A450 nm 3-4) |  |  |  |  | 1 (A450 nm 0-1) |  | 1 (A450 nm 0-1) | 3 (A450 nm 2-3) | 4 (A450 nm 3-4) | 2 (A450 nm 1-2) |  | 1 (A450 nm 0-1) |  |  | 2 (A450 nm 1-2) |  |
| ISGTPTSTMVHGMTSSSSVV (Biotin-ISGTPTSTMVHGMTSSSSVV) [Clasp-2] |  | 1 (A450 nm 0-1) | 1 (A450 nm 0-1) |  |  |  |  | 1 (A450 nm 0-1) |  |  |  | 1 (A450 nm 0-1) |  |  |  |  |  |  |  |
| CC[C@H](C)[C@H](NC(=O)[C@H](Cc1ccc(O)cc1)NC(=O)[C@@H](NC(=O)[C@@H]1CCCN1C(=O)[C@H](CCC(N)=O)NC(=O)[C@H](CCC(=O)O)NC(=O)[C@H](CCC(N)=O)NC(=O)[C@H](C)NC(=O)[C@@H](NC(=O)[C@H](CC(C)C)NC(=O)[C@H](CC(C)C)NC(=O)[C@H](CCCNC(=N)N)NC(=O)[C@H](Cc1ccc(O)cc1)NC(=O)[C@H](CCSC)NC(=O)[C@H](C)NC(=O)[C@H](C)NC(=O)[C@@H]1CCCN1C(=O)[C@H](CCSC)NC(=O)[C@@H](NC(=O)[C@H](CCCCN)NC(=O)CCCC[C@@H]1SC[C@@H]2NC(=O)N[C@@H]21)[C@@H](C)O)[C@@H](C)O)C(C)C)C(=O)O [MINT-1] (Biotin-KTMPAAMYRLLTAQEQPVYI-OH; C-terminus assumed) |  |  |  |  | 3 (A450 nm 2-3) |  |  | 5 (A450 nm of 4 more than 2× repeated) | 5 (A450 nm of 4 more than 2× repeated) |  |  |  |  |  |  |  | 3 (A450 nm 2-3) |  |  |
| KTMPAAMFRLLTGQETPLYI (Biotin-KTMPAAMFRLLTGQETPLYI) [MINT-2] | 1 (A450 nm 0-1) |  |  |  | 3 (A450 nm 2-3) |  |  | 5 (A450 nm of 4 more than 2× repeated) | 4 (A450 nm 3-4) |  |  |  |  |  |  |  | 2 (A450 nm 1-2) |  |  |
| CC(C)C[C@H](NC(=O)[C@H](CC(=O)O)NC(=O)[C@H](CO)NC(=O)[C@H](CCC(=O)O)NC(=O)CNC(=O)[C@H](Cc1ccc(O)cc1)NC(=O)[C@H](CC(C)C)NC(=O)[C@H](C)NC(=O)[C@H](CO)NC(=O)[C@H](CO)NC(=O)[C@H](Cc1ccccc1)NC(=O)[C@H](C)NC(=O)[C@H](C)NC(=O)[C@H](Cc1ccc(O)cc1)NC(=O)[C@H](CC(=O)O)NC(=O)[C@H](CC(C)C)NC(=O)[C@H](C)NC(=O)CNC(=O)[C@@H]1CCCN1C(=O)[C@@H](NC(=O)CCCC[C@@H]1SC[C@@H]2NC(=O)N[C@@H]21)C(C)C)C(=O)O [a-actinin 2] (Biotin-VPGALDYAAFSSALYGESDL-OH; C-terminus assumed) | 1 (A450 nm 0-1) | 1 (A450 nm 0-1) | 1 (A450 nm 0-1) |  |  | 1 (A450 nm 0-1) |  | 1 (A450 nm 0-1) |  |  |  |  | 5 (A450 nm of 4 more than 2× repeated) |  |  | 2 (A450 nm 1-2) |  |  | 4 (A450 nm 3-4) |
| CC[C@H](C)[C@H](NC(=O)[C@H](CCC(N)=O)NC(=O)[C@@H](NC(=O)[C@H](Cc1c[nH]cn1)NC(=O)[C@H](CCC(N)=O)NC(=O)[C@H](CC(=O)O)NC(=O)[C@H](CCC(=O)O)NC(=O)[C@H](CC(=O)O)NC(=O)[C@H](Cc1ccccc1)NC(=O)[C@@H]1CCCN1C(=O)[C@H](CCC(=O)O)NC(=O)[C@H](CC(N)=O)NC(=O)[C@H](CCC(=O)O)NC(=O)[C@@H]1CCCN1C(=O)[C@H](CC(=O)O)NC(=O)[C@H](CO)NC(=O)[C@H](CC(=O)O)NC(=O)CCCC[C@@H]1SC[C@@H]2NC(=O)N[C@@H]21)[C@@H](C)O)C(=O)N[C@H](C(=O)N[C@@H](CCCCN)C(=O)N[C@H](C(=O)O)C(C)C)[C@@H](C)O [PTEN] | 1 (A450 nm 0-1) | 4 (A450 nm 3-4) |  | 3 (A450 nm 2-3) | 1 (A450 nm 0-1) | 3 (A450 nm 2-3) |  | 1 (A450 nm 0-1) | 1 (A450 nm 0-1) | 2 (A450 nm 1-2) |  |  |  |  |  |  |  |  |  |
